Data from US20250034089A1, “TETRAHYDROCARBAZOLE COMPOUND, AND PHARMACEUTICAL COMPOSITION AND USE THEREOF” (NAIN BIOTECH (HANGZHOU) CO., LTD., priority 2021, published 2025).

Legend:
[1] = tested on: HepG2 (human liver cancer cells); test: In vitro proliferation inhibition (CCK-8), HepG2; assay type: cell-based; conditions: for IC50: Homo sapiens
Source text: • 1) Cell sources: HeLa (human cervical cancer cells), CaSki (human cervical cancer intestinal metastasis cells), Huh7 (human liver cancer cells), HepG2 (human liver cancer cells), Hep3B (human liver cancer cells) were purchased from the Chinese Academy of Sciences cell bank (Shanghai); LO2 (human normal liver cells) and HcerEpic (human normal uterine epithelial cells) were from ATCC. • 2) Cell culture and passage: The cell culture and passage method is the same as that described in “The inhibitory effect of compounds on the OCT4 protein in tumor stem cells (CSC)”. • 3) Cell dosing treatment: The each type of cells mentioned above was digested, counted, and inoculated in each well of the 96 well cell culture plate (#3988, Corning) at a density of 5000 cells/200 μl culture medium. They were cultured in a cell culture incubator at 37° C. and 5% CO2 for 24 hours to allow the cells to fully adherent to the wall. Then, the original culture medium was replaced with complete culture medium containing gradient diluted KZT-A5 (each concentration with 3 repeated wells) as well as DMSO (#D5879, Sigma Aldrich) solvent control, and they are cultured for additional 72 hours. • 4) Pharmacodynamic test and statistics: First, the morphology of cells treated with the above compounds was observed, photographed and recorded using an inverted phase contrast microscope (X71, Olympus). Then the original culture medium was replaced with phenol red free culture medium containing CCK-8 detection reagent (#E606335, Shanghai Shenggong) respectively, and they are cultured in the incubator for additional 2 hours. Then the OD450 nm absorbance value (OD value) was measured on a multifunctional enzyme-linked immunosorbent assay (168-1130, Bio Rad). After the cells were treated with the test compound, the equations for calculating the cell survival rate or cell growth rate is: survival rate=GD value of the treated group/OD value of the control group×100%; the equations for calculating the growth inhibition rate of compounds on cell proliferation is: inhibition rate=(OD value of control group−OD value of the treated group)/OD value of control group×100%. Further, the IC50 of each compound was calculated in SPSS based on the inhibition rate. […]

[2] = tested on: LO2 (human normal liver cells); test: In vitro proliferation inhibition (CCK-8), LO2; assay type: cell-based
Source text: • 1) Cell sources: HeLa (human cervical cancer cells), CaSki (human cervical cancer intestinal metastasis cells), Huh7 (human liver cancer cells), HepG2 (human liver cancer cells), Hep3B (human liver cancer cells) were purchased from the Chinese Academy of Sciences cell bank (Shanghai); LO2 (human normal liver cells) and HcerEpic (human normal uterine epithelial cells) were from ATCC. • 2) Cell culture and passage: The cell culture and passage method is the same as that described in “The inhibitory effect of compounds on the OCT4 protein in tumor stem cells (CSC)”. • 3) Cell dosing treatment: The each type of cells mentioned above was digested, counted, and inoculated in each well of the 96 well cell culture plate (#3988, Corning) at a density of 5000 cells/200 μl culture medium. They were cultured in a cell culture incubator at 37° C. and 5% CO2 for 24 hours to allow the cells to fully adherent to the wall. Then, the original culture medium was replaced with complete culture medium containing gradient diluted KZT-A5 (each concentration with 3 repeated wells) as well as DMSO (#D5879, Sigma Aldrich) solvent control, and they are cultured for additional 72 hours. • 4) Pharmacodynamic test and statistics: First, the morphology of cells treated with the above compounds was observed, photographed and recorded using an inverted phase contrast microscope (X71, Olympus). Then the original culture medium was replaced with phenol red free culture medium containing CCK-8 detection reagent (#E606335, Shanghai Shenggong) respectively, and they are cultured in the incubator for additional 2 hours. Then the OD450 nm absorbance value (OD value) was measured on a multifunctional enzyme-linked immunosorbent assay (168-1130, Bio Rad). […] Further, the IC50 of each compound was calculated in SPSS based on the inhibition rate. […]

[3] = tested on: HeLa cells; test: Tumor microspheres cultured in HeLa cells; assay type: cell-based, human; conditions: 10 μM, 48 hours
Description: • 1) Cell sources: cervical cancer cells HeLa and Caski, liver cancer cells Hep3B and Huh7 were all purchased from the Chinese Academy of Sciences cell bank (Shanghai). • 2) Tumor microsphere culture: The specific culture method for tumor microspheres can be found in the literature (Cheng J et al. Tryptophan derivatives regulate the transfer of Oct4 in stem-like cancer cells. Nat Commun. 2015, 6:7209). Each tumor cell was cultured separately in a medium containing 2% B27, 10 ng/ml BFGF, 5 ng/ml EGF, and 10 ng/ml LIF to form CSC rich tumor microspheres. • 3) Cell dosing treatment: HeLa cell lines and Huh7 cell lines were inoculated in a 6-well plate containing the aforementioned culture medium at a density of 200 cells per well, while Hep3B cell lines and Caski cell lines were inoculated in a 6-well plate containing the aforementioned culture medium at a density of 2000 cells per well. KZT-A5 or AH057 at concentrations of 1 μM or 10 μM was added, and the morphology of tumor microspheres was observed, photographed and recorded after 48 hours of treatment.

[4] = tested on: JAK1/2-STAT3 signaling pathway; test: Inhibitory effect on JAK/STAT signaling pathway biomarkers in HeLa cells (Western blot); assay type: cell-based, human; conditions: HeLa 3A11, 1, 10, 100 μM, 72 hours, FIG. 4
Description: • 1) Cell source: HeLa cell line 3A11 with endogenous high expression of OCT4, prepared by the inventor's laboratory. • 2) Cell culture and passage: The cell culture and passage method is the same as that described in “The inhibitory effect of compounds on the OCT4 protein in tumor stem cells (CSC)”. • 3) Cell dosing treatment: The above-mentioned HeLa cells were digested, counted, and inoculated into each well of the 96 well cell culture plate (#3988, Corning) at a density of 5000 cells/200 μl culture medium. They were cultured in a cell culture incubator at 37° C. and 5% CO2 for 24 hours to allow the cells to fully adherent to the wall. Then, the original culture medium was replaced with complete culture medium containing 1 μM, 10 μM, and 100 μM KZT compounds or AH057 (each compound at each concentration with 3 repeated wells) as well as DMSO (#D5879, Sigma Aldrich) solvent control, and they are cultured for additional 72 hours. • 4) Preparation of test samples: The preparation of test samples method is the same as that described in “The inhibitory effect of compounds on the OCT4 protein in tumor stem cells (CSC)”. • 5) Detection of JAK/STAT signaling pathway biomarker: HeLa cells have been reported to continuously activate JAK1/2 and further activate STAT3 through the IL-6 autocrine pathway. […]

IC50 ([1]; HepG2, 72 hours, CCK-8, average of three wells in one test): 3.13 µM | IC50 ([1]; HepG2, test (2), average±standard deviation of three wells): 3.16 ± 0.08 µM
SMILES: COc1cc(/C=C2\CCc3c([nH]c4ccc(C)cc34)C2=O)ccc1O [KZT-A5]
inhibitory effect on viability compared with AH057 ([1]; HepG2, FIG. 6): more significant inhibitory effect | IC50 ([2]; LO2, 72 hours, CCK-8, average of three wells in one test): 82.1 µM | IC50 ([2]; LO2, test (2), average±standard deviation of three wells): 96.5 ± 13 µM | inhibitory effect on tumor microspheres compared with AH057 [3]: more significant than that of the control compound AH057 | inhibition of activation of JAK1/2-STAT3 signaling pathway [4]: effectively inhibit the activation of the JAK1/2-STAT3 signaling pathway in a dose-dependent manner
